{"source": "paper PMC3433420", "about": "(PLoS ONE, 2012)", "key": {"SHC1 SH2 domain": {"target": "SHC1 SH2 domain (Homo sapiens, UniProt P29353)", "sequence (P29353 488-579 limits assumed)": "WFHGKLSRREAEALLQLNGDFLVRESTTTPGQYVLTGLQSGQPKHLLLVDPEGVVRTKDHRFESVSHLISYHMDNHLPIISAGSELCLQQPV", "experiment": "FP saturation binding assay"}, "SH2 and PTB domains": {"target": "SH2 and PTB domains", "conditions": "original PM interactions, ref Jones et al. 2006 / Kaushansky et al. Chem and Biol 2008, cited from earlier work", "text": "Supplement pone.0044471.s022.xlsx, sheet \"Most recent PM interactions\" | column: Kd || Supplement pone.0044471.s022.xlsx, sheet \"All original PM interactions\" | column: Kd"}}, "note": "Like-named read-outs stand apart in the source and are kept apart here. Residues, ends and D or L forms follow the SMILES beside them."}
{"molecule": "CC(C)C[C@H](NC(=O)[C@H](Cc1ccc(OP(=O)(O)O)cc1)NC(=O)[C@H](CC(C)C)NC(=O)[C@@H]1CCCN1C(=O)[C@H](CCC(=O)O)NC(=O)[C@H](CC(N)=O)NC(=O)[C@@H](NC(=O)[C@H](Cc1ccc(O)cc1)NC(=O)[C@H](CCC(=O)O)NC(=O)[C@H](CC(=O)O)NC(=O)[C@@H](N)CCC(=O)O)C(C)C)C(=O)N[C@@H](CC(N)=O)C(=O)N[C@H](C(=O)N[C@@H](Cc1ccccc1)C(=O)N[C@@H](C)C(=O)N[C@@H](CC(N)=O)C(=O)N[C@H](C(=O)N[C@@H](CC(=O)O)C(=O)O)[C@@H](C)O)[C@@H](C)O", "note": "[ErbB4 1208 18-mer] (HELM PEPTIDE1{E.D.E.Y.V.N.E.P.L.[O=C([C@H](Cc1ccc(OP(=O)(O)O)cc1)N[*:1])[*:2]].L.N.T.F.A.N.T.D}$$$$V2.0)", "values": [{"measurement": "Kd", "setting": "SHC1 SH2 domain", "result": 11, "unit": "µM"}]}
{"molecule": "DNLYpYWDQDPPEd [ErbB2 pY1222, N-terminally rhodamine-labeled 13-mer phosphopeptide]", "values": [{"measurement": "Kd", "setting": "SH2 and PTB domains; Protein ABL1", "result": 1.84, "unit": "µM"}, {"measurement": "Kd", "setting": "SH2 and PTB domains; Protein ABL2", "result": 0.19, "unit": "µM"}, {"measurement": "Kd", "setting": "SH2 and PTB domains; Protein BCAR3", "result": 2, "unit": "µM"}, {"measurement": "Kd", "setting": "SH2 and PTB domains; Protein BLK", "result": 2, "unit": "µM"}, {"measurement": "Kd", "setting": "SH2 and PTB domains; Protein BMX", "result": 2, "unit": "µM"}, {"measurement": "Kd", "setting": "SH2 and PTB domains; Protein BTK", "result": 2, "unit": "µM"}, {"measurement": "Kd", "setting": "SH2 and PTB domains; Protein CRKL", "result": 1.46, "unit": "µM"}, {"measurement": "Kd", "setting": "SH2 and PTB domains; Protein DAPP1", "result": 2, "unit": "µM"}, {"measurement": "Kd", "setting": "SH2 and PTB domains; Protein FGR", "result": 2, "unit": "µM"}, {"measurement": "Kd", "setting": "SH2 and PTB domains; Protein GRB10", "result": 0.49, "unit": "µM"}, {"measurement": "Kd", "setting": "SH2 and PTB domains; Protein HSH2D", "result": 2, "unit": "µM"}, {"measurement": "Kd", "setting": "SH2 and PTB domains; Protein ITK", "result": 2, "unit": "µM"}, {"measurement": "Kd", "setting": "SH2 and PTB domains; Protein NCK1", "result": 2, "unit": "µM"}, {"measurement": "Kd", "setting": "SH2 and PTB domains; Protein PIK3R1-C", "result": 2, "unit": "µM"}, {"measurement": "Kd", "setting": "SH2 and PTB domains; Protein PIK3R1-NC", "result": 1.84, "unit": "µM"}, {"measurement": "Kd", "setting": "SH2 and PTB domains; Protein PIK3R2-NC", "result": 2, "unit": "µM"}, {"measurement": "Kd", "setting": "SH2 and PTB domains; Protein PIK3R3-C", "result": 2, "unit": "µM"}, {"measurement": "Kd", "setting": "SH2 and PTB domains; Protein PIK3R3-NC", "result": 0.78, "unit": "µM"}, {"measurement": "Kd", "setting": "SH2 and PTB domains; Protein PLCG1-N", "result": 2, "unit": "µM"}, {"measurement": "Kd", "setting": "SH2 and PTB domains; Protein PLCG1-NC", "result": 1.79, "unit": "µM"}, {"measurement": "Kd", "setting": "SH2 and PTB domains; Protein PLCG2-N", "result": 2, "unit": "µM"}, {"measurement": "Kd", "setting": "SH2 and PTB domains; Protein PLCG2-NC", "result": 2, "unit": "µM"}, {"measurement": "Kd", "setting": "SH2 and PTB domains; Protein PTPN6-C", "result": 2, "unit": "µM"}, {"measurement": "Kd", "setting": "SH2 and PTB domains; Protein PTPN11-N", "result": 2, "unit": "µM"}, {"measurement": "Kd", "setting": "SH2 and PTB domains; Protein RASA1-C", "result": 2, "unit": "µM"}, {"measurement": "Kd", "setting": "SH2 and PTB domains; Protein RASA1-N", "result": 0.5, "unit": "µM"}, {"measurement": "Kd", "setting": "SH2 and PTB domains; Protein RASA1-NC", "result": 2, "unit": "µM"}, {"measurement": "Kd", "setting": "SH2 and PTB domains; Protein SH2B2", "result": 1.47, "unit": "µM"}, {"measurement": "Kd", "setting": "SH2 and PTB domains; Protein SH2B3", "result": 2, "unit": "µM"}, {"measurement": "Kd", "setting": "SH2 and PTB domains; Protein SH2D1A", "result": 2, "unit": "µM"}, {"measurement": "Kd", "setting": "SH2 and PTB domains; Protein SH2D1B", "result": 2, "unit": "µM"}, {"measurement": "Kd", "setting": "SH2 and PTB domains; Protein SH2D3A", "result": 1.6, "unit": "µM"}, {"measurement": "Kd", "setting": "SH2 and PTB domains; Protein SH2D3C", "result": 0.71, "unit": "µM"}, {"measurement": "Kd", "setting": "SH2 and PTB domains; Protein SHC1-PTB", "result": 0.09, "unit": "µM"}, {"measurement": "Kd", "setting": "SH2 and PTB domains; Protein SHC1", "result": 2, "unit": "µM"}, {"measurement": "Kd", "setting": "SH2 and PTB domains; Protein SHC2-PTB", "result": 0.46, "unit": "µM"}, {"measurement": "Kd", "setting": "SH2 and PTB domains; Protein SHC3", "result": 1.71, "unit": "µM"}, {"measurement": "Kd", "setting": "SH2 and PTB domains; Protein SHC4", "result": 2, "unit": "µM"}, {"measurement": "Kd", "setting": "SH2 and PTB domains; Protein SHD", "result": 2, "unit": "µM"}, {"measurement": "Kd", "setting": "SH2 and PTB domains; Protein SHF", "result": 2, "unit": "µM"}, {"measurement": "Kd", "setting": "SH2 and PTB domains; Protein SLA2", "result": 2, "unit": "µM"}, {"measurement": "Kd", "setting": "SH2 and PTB domains; Protein SLA", "result": 2, "unit": "µM"}, {"measurement": "Kd", "setting": "SH2 and PTB domains; Protein SOCS1", "result": 1.92, "unit": "µM"}, {"measurement": "Kd", "setting": "SH2 and PTB domains; Protein SOCS2", "result": 2, "unit": "µM"}, {"measurement": "Kd", "setting": "SH2 and PTB domains; Protein SOCS3", "result": 2, "unit": "µM"}, {"measurement": "Kd", "setting": "SH2 and PTB domains; Protein SOCS5", "result": 2, "unit": "µM"}, {"measurement": "Kd", "setting": "SH2 and PTB domains; Protein SOCS6", "result": 2, "unit": "µM"}, {"measurement": "Kd", "setting": "SH2 and PTB domains; Protein SRC", "result": 2, "unit": "µM"}, {"measurement": "Kd", "setting": "SH2 and PTB domains; Protein SUPT6H", "result": 2, "unit": "µM"}, {"measurement": "Kd", "setting": "SH2 and PTB domains; Protein SYK-C", "result": 1.97, "unit": "µM"}, {"measurement": "Kd", "setting": "SH2 and PTB domains; Protein SYK-N", "result": 0.2, "unit": "µM"}, {"measurement": "Kd", "setting": "SH2 and PTB domains; Protein SYK-NC", "result": 0.46, "unit": "µM"}, {"measurement": "Kd", "setting": "SH2 and PTB domains; Protein TEC", "result": 1.61, "unit": "µM"}, {"measurement": "Kd", "setting": "SH2 and PTB domains; Protein TENC1", "result": 0.84, "unit": "µM"}, {"measurement": "Kd", "setting": "SH2 and PTB domains; Protein TNS1", "result": 2, "unit": "µM"}, {"measurement": "Kd", "setting": "SH2 and PTB domains; Protein TNS3", "result": 1.29, "unit": "µM"}, {"measurement": "Kd", "setting": "SH2 and PTB domains; Protein TXK", "result": 2, "unit": "µM"}, {"measurement": "Kd", "setting": "SH2 and PTB domains; Protein VAV1", "result": 2, "unit": "µM"}, {"measurement": "Kd", "setting": "SH2 and PTB domains; Protein VAV2", "result": 2, "unit": "µM"}, {"measurement": "Kd", "setting": "SH2 and PTB domains; Protein VAV3", "result": 2, "unit": "µM"}, {"measurement": "Kd", "setting": "SH2 and PTB domains; Protein YES1", "result": 2, "unit": "µM"}]}
